Holding throughout (assay type): cell-based
In assay [1] the test system is A549 (ATCC CCL-185, monolayer culture of a human lung carcinoma). Briefly: In vitro antitumor screening, growth inhibition of A549 cells (Crystal Violet). The following applies: approximate IC50; three days of incubation at 37° C.; Crystal Violet staining; duplicate. From the text:
(§1) Its antitumor activity has been detected in vitro by culturing the tumor cells following the methodology described by
(§2) (1): Raymond I. Bergeron, Paul F. Cavanaugh, Jr., Steven J. Mine, Robert G. Hughes, Jr., Gary T. Elliot and Carl W. Porter. Antineoplastic and antiherpetic activity of spermidine catecholamide iron chelators. Biochem. Bioph. Res. Comm. 1984, 121(3): 848-854; and
(§3) (2). Alan C. Schroeder, Robert G. Hughes, Jr. and Alexander Bloch. Effects of Acycic Pyrimidine Nucleoside Analoges. J. Med. Chem. 1981, 24:1078-1083.
(§4) Cells were maintained in logarithmic phase of growth in Eagle's Minimum Essential Medium, with Earle's Balanced Salts, with 2.0 mM L-glutamine, with non-essential amino acids, without sodium bicarbonate (EMEM/neaa); supplemented with 10% Fetal Calf Serum (FCS), 10^−2 M sodium bicarbonate and 0.1 g/l penicillin-G +streptomycin sulfate. […]
(§5) A549 and HT-29 cells were seeded into 16 mm wells at 2×10^4 cells per well in 1 ml aliquots of MEM 1OFCS containing the indicated concentration of drug. […] An approximate IC50 was determined by comparing the growth in wells with drug to the growth in wells control.

Assay [2] relates to HT-29 (ATCC HTB-38, monolayer culture of a human colon carcinoma). The experiment in a line: In vitro antitumor screening, growth inhibition of HT-29 cells (Crystal Violet). The following applies: approximate IC50; three days of incubation at 37° C.; Crystal Violet staining; duplicate.
Text: as §1, §2, §3, §4, §5

Assay [3] has as its system P388 (ATCC CCL-46, suspension culture of a lymphoid neoplasm from DBA/2 mouse). Briefly: In vitro antitumor screening, growth inhibition of P388 cells.
Text: as §1, §2, §3
Cells were maintained in logarithmic phase of growth in Eagle's Minimum Essential Medium, with Earle's Balanced Salts, with 2.0 mM L-glutamine, with non-essential amino acids, without sodium bicarbonate (EMEM/neaa); supplemented with 10% Fetal Calf Serum (FCS), 10^−2 M sodium bicarbonate and 0.1 g/l penicillin-G +streptomycin sulfate.
A screening procedure has been carried out to determine and compare the antitumor activity of citreamicin CL, using an adapted form of the method described by Bergeron et al. The antitumor cells employed were P388 (ATCC CCL-46, suspension culture of a lymphoid neoplasm from DBA/2 mouse), A549 (ATCC CCL-185, monolayer culture of a human lung carcinoma) and HT-29 (ATCC HTB-38, monolayer culture of a human colon carcinoma). […]

Data on one compound can be found in US20030236291A1, “Use of citreamicins” (priority 2000, published 2003).

What is called IC50 is the concentration needed to halve the response being measured. Read a high IC50 as a need for much substance. As to `COc1cc2oc3c(c(=O)c2cc1OC)C(=O)c1c(ccc2cc4c(c(O)c12)C(=O)N1C(C)(C4)OC(=O)C1(C)COC(=O)CC(C)C)C3=O` (stereo not drawn) [Citreamicin α, citreamicin α], the IC50 in assay [1] was found to be 4 nM; in assay [2] it was 4 nM; in assay [3] (approximate IC50, three days of incubation at 37° C., growth in wells with drug vs control wells, duplicate), 3 nM. The “in vitro antitumor activity” value in assay [3] (cell line derived from mouse lymphoma) is listed as “exhibits in vitro antitumor activity”.
